In the supplement of paper PMC10883282:
Where a name gives a salt, the structure may show the parent alone. ± gives the standard deviation of the averaged measurements.

Experiments:
Assay in all cases: relative viability vs DMSO control (72 h) (fraction); higher = more viable cells
A204 = test system: A204
In short: (§1)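 Sarcoma cell lines were seeded in 384-well plates at densities chosen for 80–90% confluence, then 24 h later given 2.5 µl of serially diluted compound drawn from source plates spanning 10 mM to 0.0002 mM. They were held 72 h at 37 °C, 5% CO2, with 0.1% DMSO vehicle and a 5 µM positive control included. Relative viability was read with ATPLite as percent growth and averaged over up to triplicate wells. Rescaling placed full at 1 and none at 0.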

G401 = test system: G401
In short: as §1

HS729 = test system: HS729
In short: as §1

KHOS-240S = test system: KHOS-240S
In short: as §1

MES-SA = test system: MES-SA
In short: as §1

RD = test system: RD
In short: as §1

SK-ES-1 = test system: SK-ES-1
In short: as §1

SK-LMS-1 = test system: SK-LMS-1
In short: as §1

SW1353 = test system: SW1353
In short: as §1

SW872 = test system: SW872
In short: as §1

SW982 = test system: SW982
In short: as §1

VA-ES-BJ = test system: VA-ES-BJ
In short: as §1

C=C1C[C@@H]2CC[C@@]34C[C@H]5O[C@H]6[C@@H](O3)[C@H]3O[C@H](CC[C@@H]3O[C@H]6[C@H]5O4)CC(=O)C[C@@H]3[C@@H](OC)[C@@H](C[C@H](O)CN)O[C@H]3C[C@H]3O[C@@H](CC[C@@H]1O2)C[C@@H](C)C3=C [Eribulin Mesylate]
Conditions	relative viability
A204, 1.37 pM	1.12 ± 0.048
A204, 4.1 pM	1.12 ± 0.015
A204, 12.3 pM	1.09 ± 0.032
A204, 37 pM	0.68 ± 0.098
A204, 0.00011 µM	0.596 ± 0.031
A204, 0.00033 µM	0.475 ± 0.018
A204, 0.001 µM	0.414 ± 0.039
A204, 0.003 µM	0.329 ± 0.038
A204, 0.009 µM	0.2412 ± 0.0022
A204, 0.027 µM	0.224 ± 0.0057
A204, 460 fM	1.11 ± 0.047
G401, 1.37 pM	1.08 ± 0.022
G401, 4.1 pM	1.06 ± 0.04
G401, 12.3 pM	1.06 ± 0.027
G401, 37 pM	0.814 ± 0.14
G401, 0.00011 µM	0.736 ± 0.081
G401, 0.00033 µM	0.604 ± 0.049
G401, 0.001 µM	0.513 ± 0.0063
G401, 0.003 µM	0.452 ± 0.011
G401, 0.009 µM	0.417 ± 0.011
G401, 0.027 µM	0.366 ± 0.0054
G401, 460 fM	1.05 ± 0.025
HS729, 1.37 pM	1.04 ± 0.036
HS729, 4.1 pM	0.987 ± 0.035
HS729, 12.3 pM	0.965 ± 0.058
HS729, 37 pM	0.874 ± 0.061
HS729, 0.00011 µM	0.835 ± 0.035
HS729, 0.00033 µM	0.756 ± 0.019
HS729, 0.001 µM	0.6663 ± 0.0064
HS729, 0.003 µM	0.583 ± 0.015
HS729, 0.009 µM	0.519 ± 0.018
HS729, 0.027 µM	0.48 ± 0.0042
HS729, 460 fM	1.08 ± 0.043
KHOS-240S, 1.37 pM	1.11 ± 0.038
KHOS-240S, 4.1 pM	1.09 ± 0.02
KHOS-240S, 12.3 pM	1.1 ± 0.042
KHOS-240S, 37 pM	0.9987 ± 0.0074
KHOS-240S, 0.00011 µM	0.655 ± 0.018
KHOS-240S, 0.00033 µM	0.504 ± 0.02
KHOS-240S, 0.001 µM	0.365 ± 0.029
KHOS-240S, 0.003 µM	0.245 ± 0.01
KHOS-240S, 0.009 µM	0.179 ± 0.02
KHOS-240S, 0.027 µM	0.15 ± 0.011
KHOS-240S, 460 fM	1.07 ± 0.014
MES-SA, 1.37 pM	1.01 ± 0.021
MES-SA, 4.1 pM	0.996 ± 0.018
MES-SA, 12.3 pM	0.973 ± 0.011
MES-SA, 37 pM	0.425 ± 0.018
MES-SA, 0.00011 µM	0.472 ± 0.049
MES-SA, 0.00033 µM	0.311 ± 0.0072
MES-SA, 0.001 µM	0.254 ± 0.017
MES-SA, 0.003 µM	0.178 ± 0.0044
MES-SA, 0.009 µM	0.122 ± 0.0053
MES-SA, 0.027 µM	0.109 ± 0.0048
MES-SA, 460 fM	0.996 ± 0.016
RD, 1.37 pM	1.069 ± 0.0092
RD, 4.1 pM	1.041 ± 0.01
RD, 12.3 pM	0.9352 ± 0.005
RD, 37 pM	0.683 ± 0.023
RD, 0.00011 µM	0.442 ± 0.02
RD, 0.00033 µM	0.268 ± 0.016
RD, 0.001 µM	0.254 ± 0.014
RD, 0.003 µM	0.247 ± 0.0058
RD, 0.009 µM	0.273 ± 0.0059
RD, 0.027 µM	0.254 ± 0.015
RD, 460 fM	1.07 ± 0.041
SK-ES-1, 1.37 pM	1.05 ± 0.065
SK-ES-1, 4.1 pM	1.06 ± 0.11
SK-ES-1, 12.3 pM	0.861 ± 0.078
SK-ES-1, 37 pM	0.0486 ± 0.0039
SK-ES-1, 0.00011 µM	0.0799 ± 0.011
SK-ES-1, 0.00033 µM	0.0234 ± 0.0067
SK-ES-1, 0.001 µM	0.0171 ± 0.0017
SK-ES-1, 0.003 µM	0.0147 ± 0.00035
SK-ES-1, 0.009 µM	0.0166 ± 0.0027
SK-ES-1, 0.027 µM	0.019 ± 0.0013
SK-ES-1, 460 fM	1.07 ± 0.088
SK-LMS-1, 1.37 pM	0.971 ± 0.049
SK-LMS-1, 4.1 pM	0.952 ± 0.048
SK-LMS-1, 12.3 pM	0.909 ± 0.018
SK-LMS-1, 37 pM	0.819 ± 0.02
SK-LMS-1, 0.00011 µM	0.708 ± 0.048
SK-LMS-1, 0.00033 µM	0.52 ± 0.056
SK-LMS-1, 0.001 µM	0.482 ± 0.016
SK-LMS-1, 0.003 µM	0.392 ± 0.016
SK-LMS-1, 0.009 µM	0.359 ± 0.018
SK-LMS-1, 0.027 µM	0.308 ± 0.021
SK-LMS-1, 460 fM	0.996 ± 0.049
SW872, 1.37 pM	1.08 ± 0.049
SW872, 4.1 pM	1.09 ± 0.045
SW872, 12.3 pM	1.06 ± 0.027
SW872, 37 pM	0.946 ± 0.029
SW872, 0.00011 µM	0.869 ± 0.025
SW872, 0.00033 µM	0.8125 ± 0.003
SW872, 0.001 µM	0.686 ± 0.028
SW872, 0.003 µM	0.567 ± 0.018
SW872, 0.009 µM	0.4921 ± 0.0027
SW872, 0.027 µM	0.429 ± 0.045
SW872, 460 fM	1.1 ± 0.035
SW982, 1.37 pM	1.061 ± 0.0085
SW982, 4.1 pM	1.08 ± 0.021
SW982, 12.3 pM	1.05 ± 0.021
SW982, 37 pM	1.04 ± 0.016
SW982, 0.00011 µM	0.801 ± 0.036
SW982, 0.00033 µM	0.523 ± 0.03
SW982, 0.001 µM	0.41 ± 0.01
SW982, 0.003 µM	0.336 ± 0.03
SW982, 0.009 µM	0.307 ± 0.0047
SW982, 0.027 µM	0.309 ± 0.029
SW982, 460 fM	1.02 ± 0.041
SW1353, 1.37 pM	1.13 ± 0.027
SW1353, 4.1 pM	1.08 ± 0.022
SW1353, 12.3 pM	1.06 ± 0.016
SW1353, 37 pM	0.975 ± 0.03
SW1353, 0.00011 µM	0.935 ± 0.11
SW1353, 0.00033 µM	0.702 ± 0.031
SW1353, 0.001 µM	0.56 ± 0.02
SW1353, 0.003 µM	0.497 ± 0.018
SW1353, 0.009 µM	0.474 ± 0.026
SW1353, 0.027 µM	0.441 ± 0.022
SW1353, 460 fM	1.16 ± 0.049
VA-ES-BJ, 1.37 pM	1.06 ± 0.018
VA-ES-BJ, 4.1 pM	1 ± 0.012
VA-ES-BJ, 12.3 pM	0.901 ± 0.012
VA-ES-BJ, 37 pM	0.72 ± 0.011
VA-ES-BJ, 0.00011 µM	0.474 ± 0.018
VA-ES-BJ, 0.00033 µM	0.391 ± 0.012
VA-ES-BJ, 0.001 µM	0.437 ± 0.021
VA-ES-BJ, 0.003 µM	0.359 ± 0.012
VA-ES-BJ, 0.009 µM	0.295 ± 0.0034
VA-ES-BJ, 0.027 µM	0.244 ± 0.012
VA-ES-BJ, 460 fM	1.08 ± 0.023
